Test results as given in ChEMBL document CHEMBL4765417, “Targeting Protein Folding: A Novel Approach for the Treatment of Pathogenic Bacteria” (J Med Chem, 2020).

Legend:
[1] = biological target: Peptidyl-prolyl cis-trans isomerase FKBP1A (Homo sapiens, UniProt P62942); assay: Inhibition of human FKBP12 assessed as reduction in PPIase activity using succinyl-Ala-Leu-Pro-Phe-4-nitroanilide as substrate incubated for 4 mins by absorbance method
[2] = biological target: Outer membrane protein MIP (Legionella pneumophila, UniProt Q70YI1); assay: Inhibition of Legionella pneumophila Mip assessed as reduction in PPIase activity using succinyl-Ala-Leu-Pro-Phe-4-nitroanilide as substrate incubated for 4 mins by absorbance method
[3] = tested on: HCT-116; assay: Antiproliferative activity against human HCT116 cells incubated for 24 hrs by cell count reagent SF based assay; format: functional; details: HCT-116, 24 h
[4] = Inhibition of Chlamydia trachomatis Mip using N-succinyl-Ala-Ala-Pro-Phe-4-nitroanilide as substrate by absorbance method
[5] = Inhibition of Neisseria gonorrhoeae N2009 Mip using N-succinyl-Ala-Ala-Pro-Phe-4-nitroanilide as substrate by absorbance method
[6] = tested on: Chlamydia trachomatis; assay: Antibacterial activity against Chlamydia trachomatis infected in human HeLa cells at 5 uM assessed as reduction in progeny infection administered at 8 to 24 hrs post infection by Western blot analysis; format: functional; design: scale not given: the % may be the effect or the level left; details: time 8-24 hrs
[7] = tested on: Chlamydia trachomatis; assay: Antibacterial activity against Chlamydia trachomatis infected in human HeLa cells at 5 uM assessed as reduction in progeny infection administered immediately followed by bacterial infection by Western blot analysis; format: functional; design: scale not given: the % may be the effect or the level left
[8] = tested on: Chlamydia trachomatis; assay: Antibacterial activity against Chlamydia trachomatis infected in human HeLa cells at 5 uM administered at 8 to 24 hrs post infection by phalloidin dye based Alexa Fluor immunofluorescence microscopy; format: functional; details: time 8-24 hrs
[9] = tested on: Chlamydia trachomatis; assay: Antibacterial activity against Chlamydia trachomatis infected in human HeLa cells at 5 uM assessed as reduction in progeny infection administered immediately followed by bacterial infection by phalloidin dye based Alexa Fluor immunofluorescence microscopy; format: functional; design: scale not given: the % may be the effect or the level left
[10] = clinical; details: human, in vivo, po, 30 mg/m2

Outer membrane protein MIP, sequence (Q70YI1 21-233 limits assumed): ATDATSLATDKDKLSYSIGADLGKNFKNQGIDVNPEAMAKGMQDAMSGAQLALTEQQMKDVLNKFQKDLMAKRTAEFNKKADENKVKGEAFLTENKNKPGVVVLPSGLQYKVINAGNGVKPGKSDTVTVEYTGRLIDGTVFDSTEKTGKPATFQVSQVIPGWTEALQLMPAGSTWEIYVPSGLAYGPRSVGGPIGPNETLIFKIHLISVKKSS
Peptidyl-prolyl cis-trans isomerase FKBP1A, sequence (P62942 whole entry): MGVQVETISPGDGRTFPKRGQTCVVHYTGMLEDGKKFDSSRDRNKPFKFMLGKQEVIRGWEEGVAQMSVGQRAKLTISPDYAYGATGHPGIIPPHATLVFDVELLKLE

Question: Which results are given for `C[C@@H]1CC([C@H](O)CC2CC(=O)N(CC(=O)NC3C4CC5(C)CC(O)(C4)CC3(C)C5)C(=O)C2)C(=O)[C@@H](C)C1` (stereo partly specified)?
Answer: IC50 [1]: 220 nM; IC50 [2]: 4.9 µM

Question: Which EC50 [3] does the source give for `S=C(SC(=S)C1CCCCC1)C1CCCCC1` here?
Answer: The EC50 was 10 µM.

Question: Which results are given for `COc1cc(CCCOC(=O)C2CCCCN2S(=O)(=O)Cc2cccc([N+](=O)[O-])c2)cc(OC)c1OC` (stereo unspecified)?
Answer: IC50 [4]: 241 nM; IC50 [5]: 2790 nM

Question: With `COc1cc(CCCOC(=O)C2CCCCN2S(=O)(=O)Cc2ccc([N+](=O)[O-])cc2)cc(OC)c1OC` (stereo unspecified) as the compound, how does the IC50 [4] read?
Answer: The IC50 was 64.6 nM.

Question: What about the Activity [6] of the same compound?
Answer: The Activity was 50%.

Question: What about the Activity [7] of the same compound?
Answer: The Activity was 50%.

Question: What about the IC50 [5] of the same compound?
Answer: Its IC50 is 95.6 nM.

Question: What about the Activity [8] of the same compound?
Answer: Its Activity is 50%.

Question: And the Activity [9]?
Answer: Its Activity is 50%.

Question: With `CCC12CC3CC(C1)C(NC(=O)CN1C(=O)CC(C[C@@H](O)C4C[C@@H](C)C[C@H](C)C4=O)CC1=O)C(C3)C2` (stereo partly specified) as the compound, how does the IC50 [1] read?
Answer: Its IC50 is 190 nM.

Question: What about the IC50 [2] of the same compound?
Answer: The IC50 was 5.6 µM.

Question: Which results are given for `C[C@@H]1CC([C@H](O)CC2CC(=O)N(CC(=O)NC3C4CC5(C)CC3CC(C)(C4)C5)C(=O)C2)C(=O)[C@@H](C)C1` (stereo partly specified)?
Answer: IC50 [1]: 180 nM; IC50 [2]: 1.7 µM

Question: Which half-life at 672 h [10] does the source give for `CC1=C(/C=C/C(C)=C/C=C/C(C)=C/C(=O)O)C(C)(C)CCC1` [TRETINOIN] here?
Answer: The half-life at 672 h was 45 min.

Question: With `C[C@@H]1CC([C@H](O)CC2CC(=O)N(CC(=O)NC3C4CC5CC3CC(O)(C5)C4)C(=O)C2)C(=O)[C@@H](C)C1` (stereo partly specified) as the compound, how does the IC50 [1] read?
Answer: The IC50 was 1200 nM.

Question: What about the IC50 [2] of the same compound?
Answer: Its IC50 is 21.8 µM.

Question: For `C[C@@H]1CC([C@H](O)CC2CC(=O)N(CC(=O)N(C)C(C)(C)C)C(=O)C2)C(=O)[C@@H](C)C1` (stereo partly specified), which IC50 [2] is on record?
Answer: Its IC50 is 31.7 µM.

Question: Which IC50 [4] does the source give for `CO[C@H]1C[C@@H]2CC[C@@H](C)[C@@](O)(O2)C(=O)C(=O)N2CCCC[C@H]2C(=O)O[C@H]([C@H](C)C[C@@H]2CC[C@@H](O)[C@H](OC)C2)CC(=O)[C@H](C)/C=C(\C)[C@@H](O)[C@@H](OC)C(=O)[C@H](C)C[C@H](C)/C=C/C=C/C=C/1C` [SIROLIMUS] here?
Answer: Its IC50 is 7.9 nM.

Question: What about the IC50 [5] of the same compound?
Answer: Its IC50 is 15.8 nM.
